According to US11698357B2, “Method for screening, isolating and purifying analytes” (CHANG GUNG UNIVERSITY, priority 2019, dated 2023):

Key:
[1] = system: MES-SA/Dx5 cells; experiment: Percentage of live cells by fluorescent dye staining (DiB / EthD-1) and microscopy; assay type: cell-based, human
Method: (§1) In the present embodiment, cancer cell lines with (MES-SA/Dx5 cells; abbreviated as “Dx5” from the BCRC of Food Industry Research and Development Institute (FIRDI), Taiwan) and without (MES-SA cells from the BCRC of FIRDI) anti-cancer drug resistance were separately treated with various concentrations (0, 2.5, 5.0, 7.5, 10.0, 12.5, 15.0 μg ml^−1) of doxorubicin (doxorubicin hydrochloride; Enzo Life Sciences, CH) for 48 hours. The percentage of live cells was then evaluated by a combination of fluorescent dye staining and microscopic observation. Briefly, the drug-treated Dx5 cells were stained with the DiB cytoplasmic membrane labelling dye (Biotium, CA USA) and EthD-1 fluorescent dye (ethidium homodimer-1; Thermo Fisher Scientific, MA USA) to identify the living (blue staining), and dead (red staining) Dx5 cells, respectively. The drug-treated MES-SA cells were stained with Calcein-AM and EthD-1 fluorescent dyes (LIVE/DEAD1 Viability/Cytotoxicity Kit L-3224; Thermo Fisher Scientific, MA USA) to identify the living (green staining) and dead (red staining) cells, respectively. All the assays were performed according to the manufacturer's instructions. This was followed by microscopic observation using a fluorescence microscope (Zoom 160, OPTEM, USA). The overall viability of the cancer cells was then evaluated by determining the number of live cells relative to that of whole cells.

[2] = system: MES-SA cells; experiment: MTT assay cell viability; assay type: cell-based, human; conditions: 48 hours
Method: (§2) Cell viability was also evaluated by assaying the intercellular dehydrogenase activity of cells using the commonly used MTT (thiazolyl blue tetrazolium bromide; Sigma Aldrich, MO USA) assay. Briefly, the cancer cells (i.e., MES-SA and Dx5 cells) were separately treated with doxorubicin as mentioned above. The drug-treated cancer cells were then assayed for viability (%) based on the manufacturer's instructions for the MTT assay kit.

[3] = system: MES-SA cells; experiment: Percentage of live cells by fluorescent dye staining (Calcein-AM / EthD-1) and microscopy; assay type: cell-based, human
Method: as §1

[4] = system: MES-SA/Dx5 cells; experiment: MTT assay cell viability; assay type: cell-based; conditions: Homo sapiens, 5.0 μg ml^−1 doxorubicin, 48 hours
Method: as §2

[5] = 5.0 μg ml^−1 doxorubicin for 48 hours
[6] = 5.0 μg ml^−1 doxorubicin, 48 hours

SMILES: COc1cccc2c1C(=O)c1c(O)c3c(c(O)c1C2=O)C[C@@](O)(C(=O)CO)C[C@@H]3O[C@H]1C[C@H](N)[C@H](O)[C@H](C)O1 [doxorubicin]
- dead cell percentage [1, 5]: 4.5%
- percentage of live cells [1, 6]: 95.5%
- viability at 5 µg/mL ([2]; Homo sapiens, 5.0 μg ml^−1 doxorubicin): 2.2%
- cell viability (%) (MTT) ([2]; various concentrations of doxorubicin): ~0%
- dead cell percentage [3, 5]: 73.9%
- percentage of live cells [3, 6]: 26.1%
- viability at 5 µg/mL [4]: 73.5%
